The values that follow come from PubChem BioAssay AID504765 (Sanford-Burnham Center for Chemical Genomics, 2011).

The source made the active and inactive calls. How the calls were made is not given here.

The target of the experiment is glucose-6-phosphate dehydrogenase-6-phosphogluconolactonase (Plasmodium falciparum 3D7). In words: PfG6PD inhibitor potency, dose response, biochemical, fluorescence intensity (AID 504765). The conditions noted are these: Recombinant PfG6PD enzyme, fluorescence intensity (NADPH).

In the case of `CC(=O)Nc1ccc2c(=O)n(-c3ccccc3)sc2c1`, the IC50 is 8.52 µM. On to `CCC(CO)[n+]1c(C)cc(/C=C2\Sc3ccccc3N2Cc2ccccc2)cc1C` (configuration not stated), for which the IC50 was 12.2 µM. In the case of `COc1cc(/C=N/n2cc(-c3ccccc3)[nH]c2=S)cc(OC)c1O` it was 19.6 µM; in that of `O=C(CBr)c1ccc([N+](=O)[O-])c(CS(=O)(=O)c2ccc(Cl)cc2)c1`, 10.5 µM; in that of `COc1cc(CNc2ccc3[nH]c(=O)[nH]c3c2)ccc1OCc1ccccc1`, “inactive”.

For `N#CC(C#N)=C1C=CC=CN1/C(=C\c1ccccc1Cl)C(=O)c1ccccc1`, the IC50 is 8.31 µM.

For `CCN1CCN(C(=S)c2ccc(Cl)c(Cl)c2)CC1`, the IC50 entry is “inactive”. Consider `Cc1cccc(OCC(=O)NCC(=O)N/N=C/c2ccccc2)c1`, for which the IC50 is 9.37 µM.

On to `COc1ccccc1NS(=O)(=O)c1cc(NC(=O)c2ccc(Cl)nc2)ccc1N1CCCC1`, for which the IC50 entry is “inactive”. With `C[n+]1c(-c2ccccc2)cc2c(=Cc3ccc([N+](=O)[O-])cc3)c3ccccc3n21`, the IC50 entry was “inactive”. For `Cc1ccccc1N/C(SCc1cccc(Br)c1)=C(/C#N)C(N)=O`, the IC50 was 5.9 µM. Under `N#Cc1c(C#N)c(SSc2c(C#N)c(C#N)c(N)n2-c2ccccc2)n(-c2ccccc2)c1N` stands 1.41 µM; under `COC(=O)CCC(=O)OC1(C)C(=O)C2=CN(c3ccc(OC)cc3)C(c3ccc(OC)cc3)=CC2=C(Br)C1=O` (configuration not stated), 3.09 µM. On to `C/C(Cn1nnc([N+](=O)[O-])n1)=N\NC(=O)c1ccc(O)cc1`, for which the IC50 was 14.6 µM. Consider `Cc1c(Cl)c([N+](=O)[O-])nn1Cc1ccc(C(=O)N/N=C\c2cccc(Br)c2)o1`, for which the IC50 was 9.37 µM.

As to `COc1cc(N)c2ncccc2c1OC`, the IC50 was 16.6 µM.

In the case of `COc1ccc(/C=C/c2nc3ccccc3n2Cc2ccc(OC)c(OC)c2)cc1`, the IC50 result is “inactive”. Under `CNCc1ccccc1Sc1cc(O)ccc1O` stands 2.23 µM.

With `Cn1c(=O)[nH]c(=O)c2c1nc(SCCN1CCCCC1)n2CCCc1ccccc1`, the IC50 is 14.2 µM. Consider `S=C(NN=Cc1ccccn1)N(Cc1ccccn1)Cc1ccccn1`, for which the IC50 was 4.66 µM.

For the molecule `O=C(Nc1nnc(S(=O)(=O)N2CCCCC2)s1)c1cccc(Br)c1`, the IC50 was 6.37 µM. Consider `CC(C)Cn1c([N+](=O)[O-])nc2c1c(=O)[nH]c(=O)n2C`, for which the IC50 is 14.3 µM. Regarding `COc1ccc(OCc2nnc3n2N=C(c2ccccc2)C(CC(=O)O)S3)cc1` (configuration not stated), the IC50 entry is “inactive”.

`O=C(Nc1nnc(S(=O)(=O)N2CCCCCC2)s1)c1cccc(Br)c1`: the IC50 is 15.1 µM. Consider `Nc1ccc(N(CCO)CCO)cc1`, for which the IC50 is 4.71 µM.

Turning to `N#Cc1ccc2sn(-c3ccccc3)c(=O)c2c1`, the IC50 was 3.47 µM. Consider `O=[N+]([O-])c1ccc(Sc2cccc3cccnc23)c2cccnc12`, for which the IC50 is 16.5 µM.

`CC(C)Sc1nnc(NC(=O)c2ccc3c(c2)OCO3)s1`: the IC50 is 4.21 µM. As to `COc1cccc(-c2c(C(=O)N/N=C/c3ccc(C)s3)nnn2-c2nonc2N)c1`, the IC50 was 6.69 µM. With `CC1COCC(C)N1C1=C(Cl)C(=O)c2ccccc2C1=O` (configuration not stated), the IC50 is 7.19 µM. Under `O=C(CCc1ccc(S(=O)(=O)N2CCOCC2)cc1)N/N=C/c1ccc(O)c(O)c1O` stands 5.82 µM. Turning to `CCOc1ccc(Cl)cc1/C=N/NC(N)=O`, the IC50 was 12.4 µM. Consider `Cc1ccc(S(=O)(=O)Oc2cccc(/C=N/Nc3ccc(C(=O)O)cc3)c2)cc1`, for which the IC50 is 7.01 µM.

Take `CCn1c2ccccc2c2nc3cc(S(=O)(=O)N4CCOCC4)ccc3nc21`: the IC50 entry is “inactive”. In the case of `COc1ccc(CN(C)S(=O)(=O)c2nnc(NC(=O)c3cccc(C)c3)s2)cc1OC` it was 6.89 µM; in that of `C[c-]1[c-](C)[c-](C)[c-](C)[c-]1C.[Fe].c1cc2nccc(N3CCCC3)[c-]2c1` (configuration not stated), “inactive”; in that of `CCOC(=O)c1c(C)n(-c2ccc(C)cc2)c2c(C(C(C)=O)C(=O)O)c(Br)c(O)c(O)c12` (configuration not stated), 2.76 µM.

Consider `COc1cccc(/C=N/NC(=O)CSc2cccc3cccnc23)c1`, for which the IC50 was 5.46 µM. On to `O=C(Cn1sc2ccccc2c1=O)Nc1ccccc1`, for which the IC50 is 1.97 µM.

Turning to `Clc1nssc1=Nc1nncs1`, the IC50 was 14.3 µM.

As for `Cc1ccc(/C=C/C(=O)N2CCN(S(=O)(=O)c3ccc(C)c(C)c3)CC2)o1`, the IC50 result was “inactive”. As to `CCOc1ccccc1C=NNC(=O)CCCCC(=O)NN=Cc1ccccc1OCC`, the IC50 is 7.77 µM.

As to `c1nc(SSc2ncnc3nc[nH]c23)c2[nH]cnc2n1`, the IC50 is 4.78 µM.

`COc1ccc(N=C2C(=S)N(c3ccc(OC)cc3)C(=NS(=O)(=O)c3ccccc3)N2c2ccccc2)cc1`: the IC50 is 2.38 µM. For the molecule `O=S(=O)(NCc1csc(-c2ccccc2)n1)c1ccc(Cl)s1`, the IC50 was 6.28 µM. Under `CC1=NOC(=O)/C1=C\c1ccc(-c2ccccc2Br)o1` stands “inactive”; under `CC(C)c1nnc(NC(=O)c2cccc(-n3cnnn3)c2)s1`, 5.55 µM; under `COc1cc(NCc2ccccc2O)c2ncccc2c1`, “inactive”.

Turning to `Cc1ccc(S(=O)(=O)SCCCSS(=O)(=O)c2ccc(C)cc2)cc1`, the half-maximal inhibitory concentration (IC50) is 4.64 µM.

For `CC(C)(C)c1ccc(O)c(O)c1`, the IC50 entry is “inactive”.

Turning to `COc1ccc(CN(C)S(=O)(=O)c2nnc(NC(=O)c3ccc(C)cc3)s2)cc1OC`, the IC50 is 7.6 µM. As for `CCc1c(C(=O)Nc2ccccc2)c(C)[nH]c(=S)c1C#N`, the IC50 result is “inactive”.

As to `N#Cc1ccc2c(=O)n(-c3ccccc3)sc2c1`, the IC50 is 3.86 µM.

For `O=c1c2ccccc2[se]n1-c1ccccc1`, the IC50 was 9.66 µM. Take `O=C(COC(=O)c1ccc2c(c1[N+](=O)[O-])C(=O)c1ccccc1C2=O)NC1CC1`: the IC50 was 16.4 µM. Take `Cc1cc(C)c(NC(=S)NCC2CCN(C(C)c3ccccc3)C2)c(C)c1` (configuration not stated): the IC50 was 14.8 µM.

As for `O=c1c2ccccc2sn1-c1ccc(Cl)cc1`, the IC50 is 2.83 µM.

With `CC(=O)Nc1ccc2sn(-c3ccccc3)c(=O)c2c1`, the IC50 is 2.53 µM.

Regarding `CC(=O)Nc1cc2c(cc1[N+](=O)[O-])-c1ccccc1C2O` (configuration not stated), the IC50 was 20 µM.

On to `CN1CCc2cccc3c2[C@@H]1Cc1ccc(O)c(O)c1-3`, for which the IC50 was 8.36 µM. In the case of `CN1CCN(C(=S)c2ccc(Br)cc2)CC1`, the IC50 entry is “inactive”.

Consider `O=C1Nc2cc(C(=O)NCCCN3CCCC3)ccc2S/C1=C/c1cccc(Cl)c1`, for which the IC50 is 17.9 µM.

Turning to `COc1cccc2nc3cc(C)c(C)cc3nc12`, the IC50 is 4.69 µM. In the case of `Cc1noc(C(=O)Nc2sc3c(c2C#N)CCC3)c1Cl`, the IC50 is 4.83 µM. In the case of `CCOc1ccc(NC(=O)Cn2sc3nc(C)cc(C)c3c2=O)cc1` it was 1.85 µM. Under `Cc1ccc(S(=O)c2ccc([N+](=O)[O-])c3nonc23)cc1` (configuration not stated) stands 8.19 µM; under `[O-]/[N+](=C\c1ccccc1)c1ccc(Br)cc1`, 0.84 µM; under `O=c1[nH]c(NCCO)c(N=Cc2ccccc2)c(=O)[nH]1`, 1.03 µM. On to `Cc1ccc(/C=C/C(=O)NCC2COc3ccccc3O2)o1` (configuration not stated), for which the IC50 is 3.66 µM.

As for `O=C(NCCCN1CCOCC1)c1sc2cc([N+](=O)[O-])ccc2c1Cl`, the IC50 is 6.75 µM. `Cc1ccc2nc(SCC(=O)N/N=C/c3ccco3)cc(C)c2c1`: the IC50 is 10.3 µM. With `Cc1cc(C)c2sc(NC(=O)C3=COCCO3)nc2c1`, the IC50 was 11 µM.

Broadly, the IC50 is the concentration at which inhibition is half-maximal.
